Source: article PMC3265250 (Chemotherapy Research and Practice, 2011)
In brackets after ≈: the same amount, converted by molar mass. Read-outs that look alike come from different tables or passages of the source. No end group written: not given here.

How the values were obtained:
[1] = system: S. aureus ATCC 6538P; assay: MIC, microbroth dilution, referential strain ATCC 6538P; format: cell-based, Staphylococcus aureus
Experimental: (§1) A total number of 24 SA strains were obtained from patients with erythrodermia and 3 reference SA ones from the American Type Culture Collection: 6538P ATCC, 9144 ATCC, and 25923 ATCC (Institute of Experimental Therapy, Wroclaw, Poland). […] Polypropylene 96-well plates (Sigma-Aldrich) were incubated for 18 h at 37°C. MIC was taken as the lowest drug concentration at which a noticeable growth was inhibited. […] The experiments were performed in triplicate.

[2] = system: S. aureus ATCC 9144; assay: MIC, microbroth dilution, referential strain ATCC 9144; format: cell-based, Staphylococcus aureus
[3] = system: S. aureus ATCC 25923; assay: MIC, microbroth dilution, referential strain ATCC 25923; format: cell-based, Staphylococcus aureus
Experimental: as §1

[4] = system: Superantigen negative S. aureus (10); conditions: for MIC 50% / MIC 90% / MIC Range: microbroth dilution, MHB II, 5 × 10^5 CFU/mL, 18 h at 37°C
[5] = system: Superantigen positive S. aureus (14); conditions: for MIC 50% / MIC 90% / MIC Range: microbroth dilution, MHB II, 5 × 10^5 CFU/mL, 18 h at 37°C
[6] = system: Superantigen negative S. aureus (10); assay: microbe, parasite or virus in culture; conditions: Staphylococcus aureus; for MIC50 / MIC90 / MIC: 18 h; for MIC: read-out: MIC Range
[7] = system: Superantigen positive S. aureus (14); assay: microbe, parasite or virus in culture; conditions: Staphylococcus aureus; for MIC50 / MIC90 / MIC: 18 h; for MIC: read-out: MIC Range
[8] = ATCC 6538P, microbroth dilution, MHB II, 5 × 10^5 CFU/mL, 18 h at 37°C, triplicate
[9] = ATCC 9144, microbroth dilution, MHB II, 5 × 10^5 CFU/mL, 18 h at 37°C, triplicate
[10] = ATCC 25923, microbroth dilution, MHB II, 5 × 10^5 CFU/mL, 18 h at 37°C, triplicate
[11] = superantigen negative clinical isolates (10), triplicate
[12] = superantigen negative clinical isolates (10), more than 99.9% reduction of the initial inoculums, triplicate
[13] = superantigen positive clinical isolates (14), triplicate
[14] = superantigen positive clinical isolates (14), more than 99.9% reduction of the initial inoculums, triplicate
[15] = Staphylococcus aureus, ATCC6538P, ATCC 6538P, microbroth dilution, MHB II, 5 × 10^5 CFU/mL, 18 h at 37°C, triplicate, read-out: MIC
[16] = Staphylococcus aureus, ATCC9144, ATCC 9144, microbroth dilution, MHB II, 5 × 10^5 CFU/mL, 18 h at 37°C, triplicate, read-out: MIC
[17] = Staphylococcus aureus, ATCC25923, ATCC 25923, microbroth dilution, MHB II, 5 × 10^5 CFU/mL, 18 h at 37°C, triplicate, read-out: MIC

Row | Compound | MBC 50% [4] [µg/mL] | MBC 90% [4] [µg/mL] | MBC Range [4, 12] [µg/mL] | MBC 50% [5] [µg/mL] | MBC Range [5, 14] [µg/mL] | MIC [1, 15] [µg/mL] | MIC [2, 16] [µg/mL] | MIC [3, 17] [µg/mL] | MIC50 [6] [µg/mL] | MIC90 [6] [µg/mL] | MIC [6] [µg/mL] | MIC90 ([6]; read-out: MICs 90%) [µg/mL] | MBC ([6]; read-out: MBC 50%) [µg/mL] | MBC ([6]; read-out: MBC 90%) [µg/mL] | MIC50 [7] [µg/mL] | MIC90 [7] [µg/mL] | MIC [7] [µg/mL] | MIC90 ([7]; read-out: MICs 90%) [µg/mL] | MBC ([7]; read-out: MBC 50%) [µg/mL] | MBC ([7]; read-out: MBC 90%) [µg/mL] | other results
1 | GLFDIIKKIAESF-NH2 (C-terminus assumed) [Aurein 1.2, aurein 1.2] | 64 | 128 | 64 to 128 | 64 | 64 to 128 |  |  |  |  |  |  |  |  |  |  |  |  |  |  |  | MIC [1, 8]: 64 µg/mL; MIC [2, 9]: 64 µg/mL; MIC [3, 10]: 64 µg/mL; MIC 50% [4, 11]: 64 µg/mL; MIC 90% [4, 11]: 128 µg/mL; MIC Range [4, 11]: 32 to 128 µg/mL; MBC 90% [5]: 128 µg/mL; MIC 50% [5, 13]: 64 µg/mL; MIC 90% [5, 13]: 128 µg/mL; MIC Range [5, 13]: 32 to 128 µg/mL
2 | CCC[C@@H]1C[C@@H](C(=O)N[C@@H]([C@H]2O[C@H](SC)[C@H](O)[C@@H](O)[C@H]2O)[C@H](C)Cl)N(C)C1 [Clindamycin, clindamycin] |  |  | 64 to 128 |  | 16 to 512 | 4 (≈ 9.41 µM) | 2 (≈ 4.71 µM) | 2 (≈ 4.71 µM) | 32 (≈ 75.3 µM) | 32 (≈ 75.3 µM) | 16 to 64 (≈ 37.6 to 151 µM) | 32 (≈ 75.3 µM) | 32 (≈ 75.3 µM) | 64 (≈ 151 µM) | 64 (≈ 151 µM) | 512 (≈ 1200 µM) | 8 to 512 (≈ 18.8 to 1200 µM) | 512 (≈ 1200 µM) | 64 (≈ 151 µM) | 128 (≈ 301 µM) | 
3 | O=C(N[C@H](CO)[C@H](O)c1ccc([N+](=O)[O-])cc1)C(Cl)Cl [Chloramphenicol, chloramphenicol] |  |  | 8 to 32 |  | 8 to 128 | 4 (≈ 12.4 µM) | 4 (≈ 12.4 µM) | 4 (≈ 12.4 µM) | 4 (≈ 12.4 µM) | 32 (≈ 99 µM) | 2 to 32 (≈ 6.19 to 99 µM) | 32 (≈ 99 µM) | 8 (≈ 24.8 µM) | 32 (≈ 99 µM) | 8 (≈ 24.8 µM) | 64 (≈ 198 µM) | 4 to 128 (≈ 12.4 to 396 µM) | 64 (≈ 198 µM) | 16 (≈ 49.5 µM) | 128 (≈ 396 µM) | 
4 | CN[C@H](CC(C)C)C(=O)N[C@H]1C(=O)N[C@@H](CC(N)=O)C(=O)N[C@H]2C(=O)N[C@H]3C(=O)N[C@H](C(=O)N[C@H](C(=O)O)c4cc(O)cc(O)c4-c4cc3ccc4O)[C@H](O)c3ccc(c(Cl)c3)Oc3cc2cc(c3O[C@@H]2O[C@H](CO)[C@@H](O)[C@H](O)[C@H]2O[C@H]2C[C@](C)(N)[C@H](O)[C@H](C)O2)Oc2ccc(cc2Cl)[C@H]1O [Vancomycin, vancomycin] |  |  |  |  |  |  |  |  | 1 (≈ 0.69 µM) | 1 (≈ 0.69 µM) | 0.5 to 1 (≈ 0.345 to 0.69 µM) | 1 (≈ 0.69 µM) | 1 (≈ 0.69 µM) | 2 (≈ 1.38 µM) | 1 (≈ 0.69 µM) | 2 (≈ 1.38 µM) | 0.5 to 2 (≈ 0.345 to 1.38 µM) | 2 (≈ 1.38 µM) | 2 (≈ 1.38 µM) | 4 (≈ 2.76 µM) | MIC ([1]; Staphylococcus aureus, ATCC6538P, 18 h): 1 µg/mL (≈ 0.69 µM); MIC ([2]; Staphylococcus aureus, ATCC9144, 18 h): 2 µg/mL (≈ 1.38 µM); MIC ([3]; Staphylococcus aureus, ATCC25923, 18 h): 1 µg/mL (≈ 0.69 µM); MBC Range [4]: 1 to 4 µg/mL; MBC Range [5]: 1 to 4 µg/mL
5 | CO[C@H]1/C=C/O[C@@]2(C)Oc3c(C)c(O)c4c(O)c(c(/C=N/N5CCN(C)CC5)c(O)c4c3C2=O)NC(=O)/C(C)=C\C=C\[C@H](C)[C@H](O)[C@@H](C)[C@@H](O)[C@@H](C)[C@H](OC(C)=O)[C@@H]1C [Rifampicin, rifampicin] |  |  | 1 to 2 |  | 0.5 to 2 | 0.25 (≈ 0.304 µM) | 0.25 (≈ 0.304 µM) | 0.25 (≈ 0.304 µM) | 0.25 (≈ 0.304 µM) | 1 (≈ 1.22 µM) | 0.25 to 1 (≈ 0.304 to 1.22 µM) | 1 (≈ 1.22 µM) | 0.25 (≈ 0.304 µM) | 1 (≈ 1.22 µM) | 0.25 (≈ 0.304 µM) | 1 (≈ 1.22 µM) | 0.25 to 1 (≈ 0.304 to 1.22 µM) | 1 (≈ 1.22 µM) | 1 (≈ 1.22 µM) | 2 (≈ 2.43 µM) | 
6 | O=C(O)c1cn(C2CC2)c2cc(N3CCNCC3)c(F)cc2c1=O [Ciprofloxacin, ciprofloxacin] |  |  |  |  |  | 1 (≈ 3.02 µM) |  | 1 (≈ 3.02 µM) |  |  |  |  |  |  |  |  |  |  |  |  | 
7 | FLPLIGRVLSGIL-NH2 (C-terminus assumed) [Temporin A, temporin A] | 16 | 32 | 16 to 64 | 32 | 16 to 64 |  |  |  |  |  |  |  |  |  |  |  |  |  |  |  | MIC [1, 8]: 8 µg/mL; MIC [2, 9]: 16 µg/mL; MIC [3, 10]: 16 µg/mL; MIC 50% [4, 11]: 8 µg/mL; MIC 90% [4, 11]: 16 µg/mL; MIC Range [4, 11]: 8 to 32 µg/mL; MBC 90% [5]: 64 µg/mL; MIC 50% [5, 13]: 8 µg/mL; MIC 90% [5, 13]: 16 µg/mL; MIC Range [5, 13]: 8 to 32 µg/mL
8 | GLFDVIKKVASVIGGL-NH2 (C-terminus assumed) [Citropin 1.1, citropin 1.1] | 16 | 64 | 16 to 64 | 16 | 16 to 64 |  |  |  |  |  |  |  |  |  |  |  |  |  |  |  | MIC [1, 8]: 8 µg/mL; MIC [2, 9]: 32 µg/mL; MIC [3, 10]: 32 µg/mL; MIC 50% [4, 11]: 16 µg/mL; MIC 90% [4, 11]: 32 µg/mL; MIC Range [4, 11]: 8 to 32 µg/mL; MBC 90% [5]: 64 µg/mL; MIC 50% [5, 13]: 16 µg/mL; MIC 90% [5, 13]: 32 µg/mL; MIC Range [5, 13]: 8 to 32 µg/mL
9 | CC[C@H]1OC(=O)[C@H](C)[C@@H](O[C@H]2C[C@@](C)(OC)[C@@H](O)[C@H](C)O2)[C@H](C)[C@@H](O[C@@H]2O[C@H](C)C[C@H](N(C)C)[C@H]2O)[C@](C)(O)C[C@@H](C)C(=O)[C@H](C)[C@@H](O)[C@]1(C)O [Erythromycin, erythromycin] |  |  |  |  | 4 to 512 | 1 (≈ 1.36 µM) | 1 (≈ 1.36 µM) | 1 (≈ 1.36 µM) | 0.5 (≈ 0.681 µM) | 0.5 (≈ 0.681 µM) | 0.25 to 64 (≈ 0.341 to 87.2 µM) | 0.5 (≈ 0.681 µM) | 1 (≈ 1.36 µM) | 2 (≈ 2.73 µM) | 1 (≈ 1.36 µM) | 256 (≈ 349 µM) |  | 256 (≈ 349 µM) | 8 (≈ 10.9 µM) | 128 (≈ 174 µM) | MIC Range [5, 13]: 0.25 to 512 µg/mL
10 | CC(=O)NC[C@H]1CN(c2ccc(N3CCOCC3)c(F)c2)C(=O)O1 [Linezolid, linezolid] |  |  |  |  |  | 0.5 (≈ 1.48 µM) | 1 (≈ 2.96 µM) | 0.5 (≈ 1.48 µM) | 1 (≈ 2.96 µM) | 1 (≈ 2.96 µM) | 0.5 to 2 (≈ 1.48 to 5.93 µM) | 1 (≈ 2.96 µM) |  |  | 1 (≈ 2.96 µM) | 2 (≈ 5.93 µM) | 0.5 to 2 (≈ 1.48 to 5.93 µM) | 2 (≈ 5.93 µM) |  |  | 
11 | GVIDAAKKVVNVLKNLF-NH2 (C-terminus assumed) [Uperin 3.6, uperin 3.6] | 128 | 128 |  | 128 |  |  |  |  |  |  |  |  |  |  |  |  |  |  |  |  | MBC 90% [5]: 128 µg/mL
